Reference: patent US20130101664A1, “MUC1 LIGAND TRAPS FOR USE IN TREATING CANCERS” (priority 2011, published 2013)

How the values were obtained:
[1] = test system: ZR-75-1 human breast carcinoma xenograft; type: in vivo; conditions: doxorubicin 6 mg/kg i.v. Q4D×3
Procedure: ZR-75-1 human breast carcinoma bearing nu/nu mice were dosed with either doxorubicin alone (squares) or in combination with 1 mg/kg GO-101 i.p daily×21 days (circles). Tumors were measured twice a week.
ZR-75-1 Hormone-dependent Breast Carcinoma Xenograft Model: Preliminary 1st TRAP Study in Combination with Doxorubicin (mean tumor volume+SE). ZR-75-1 human breast carcinoma bearing nu/nu mice were dosed with either doxorubicin 6 mg/kg i.v. Q4D×3 (squares) or 1 mg/kg GO-101 i.p daily×21 days+doxorubicin 6 mg/kg i.v. Q4D×3 (circles). Mice were weighed 2-3 times a week and tumor measurements were also performed 2-3 times a week. Points, mean tumor volumes±SE.
GO-101. To avoid freeze/thaw cycles, GO-101 protein (HG-batch GENU001) was prepared as multiple aliquots of frozen solution in PBS into individual treatment doses. The frozen tubes were stored at −80° C. until initiation of dosing. On each day of treatment, the appropriate tubes were allowed to thaw at room temperature. The resulting solution in each tube was clear and colorless with a pH of ˜6.5.
Upon receipt, the clear, red solution was stored at 4° C. protected from light. Dosing solutions were prepared just prior to each treatment by dilution with saline.
About 9-10 weeks old female mice (on the day of treatment) (CRL: NUFoxn1nu) were obtained from Charles River Labs. The mice were fed irradiated Rodent Diet 5053 and water ad libitum. […]

[2] = test system: ZR-75-1 breast carcinoma cells; experiment: Cell proliferation by trypan blue exclusion, GO-101 with oxidative stress (H2O2); type: cell-based, human; conditions: 500 nM GO-101 and/or 1 mM H2O2, 3 days, compared to mock conditions
Procedure: FIG. 8. ZR-75-1 human breast carcinoma cells were treated with 500 nM GO-101 and/or 1 mM H2O2 for 3 days and the cell proliferation was measured by trypan blue exclusion method. The percent proliferation is shown to that compared with control.
To assess the effects of GO-101 on sensitivity of human carcinoma cells to oxidative stress, the inventors treated ZR-75-1 breast carcinoma cells with 500 nM GO-101 in the presence and absence of […]. As a control, cells were also separately treated with hFc (data not shown). Following treatment for 3 days, viable cells were then counted using trypan blue exclusion. […] Importantly, the ZR-75-1 cells exposed to 500 nM GO-101, but not hFc, was associated with ˜42% growth inhibition. However, there was a ˜90% growth inhibition when cells were treated with both H2O2 and GO-101 (FIG. 8).

[3] = severe sepsis; decrease from about 31%; cited from earlier work

## COc1cccc2c1C(=O)c1c(O)c3c(c(O)c1C2=O)C[C@@](O)(C(=O)CO)C[C@@H]3O[C@H]1C[C@H](N)[C@H](O)[C@H](C)O1 [doxorubicin]
[1]
  tumor regressions / tumor free survivors: neither tumor regressions nor tumor free survivors
[1]; p=0.0356
  anti-tumor activity based upon tumor growth delay: significant

## OO [H2O2]
[2]
  inhibition in cell proliferation / growth inhibition: ~66%

## drotrecogin alfa
[3]
  mortality: about 25%
